Source: patent US9314458B2, “Topical use of ingenol-3-angelate or a salt thereof to treat skin cancer” (LEO Laboratories Limited, priority 2000, dated 2016)

Assays:
HIV-strain pNL4-3 = test: HIV-1 replication in acutely infected PBMC (CA-p24 ELISA); format: cell-based; settings: 2.8 nM
Procedure: Experiments were conducted to assess the effect of the compounds of the instant invention on HIV-1 replication in acutely infected T cells. Peripheral blood mononuclear cells (PBMC) were obtained from non-HIV-1, non-HIV-2, non-Hepatitis B/C infected donors, stimulated with phytohemagglutinin-M and grown in culture media supplemented with 10 U/mL interleukin-2. The activated PBMC were infected with […] (Low Titre) and 100 ng (High Titre) of CA-p24 equivalents of the HIV-strain pNL4-3. Cells were infected for two hr after which, the virus was removed and the cells were washed with culture media. Equivalent numbers of cells were seeded into 24 well plates and compounds were added to the cultured cells that included: TPA at 8 nM and 80 nM, Ingenol at 280 nM, PEP003 at 500 nM, 50 nM and 5 nM, or PEP004 at dilutions of 1×10^4 and 1×10^5 from the stock (final concentrations). In addition, uninfected activated PBMC were grown in the presence of TPA (80 nM), Ingenol (280 nM), PEP003 (500 nM) and PEP004 (1×10^4 dilution). Other cultures were neither infected nor treated with any compound, or infected but not treated with any compound. Supernatant was removed from each culture at day 0, 3, 7, and 10. The amount of HIV-1 CA-p24 was determined using a commercially available ELISA assay. Three independent experiments were performed.

PKCα = molecular target: T1, PKCα (Homo sapiens, UniProt P17252); format: cell-based; settings: HeLa, one hour; TPA 100 ng/mL, bryostatin-1 5 pg/mL, PEP003 2.25 μg/mL (5 μM)
T1 construct: host or cells: HeLa cells
Procedure: (§1) Five EGFP-PKC isoforms (Clontech) were available for this experiment, enabling the screening of the three predominant PKC families (i.e. classical, novel and atypical PKCs). The members of the various PKC families are α, β, and γ (classical), θ (novel) and ζ (atypical).
(§2) HeLa cells were plated out in a 24-well plate containing coverslips and transfected with PKC isoforms fused to EGFP, using a commercially available effectine-transfection kit (QIAGEN, Pty. Ltd.). Cells were exposed to the transfection reagents for 16-24 hr. Subsequently, transfected cells were treated for one hour with TPA (100 ng/mL), bryostatin-1 (5 pg/mL), PEP003 (2.25 μg/mL; 5 μM) or PEP005 ([…]) 1.5 μM). Following treatment, cells were fixed on coverslips and mounted on glass slides. The slides were subsequently examined visually by fluorescence microscopy, photographed, and over 150 cells were counted/treatment/PKC isoform. Counted cells were classified according to the localisation of the PKC-EGFP fluorescence as either cytoplasmic or plasma membrane using ImagePro™ 4.1 (FIG. 5). […] The number of these cells was also counted.

PKCβ = molecular target: T2, PKCβ (Homo sapiens, UniProt P05771); test: EGFP-PKC translocation in HeLa cells (PKCβ); format: cell-based; settings: one hour
T2 construct: host or cells: HeLa cells
T2 sequence (P05771 whole entry, species assumed): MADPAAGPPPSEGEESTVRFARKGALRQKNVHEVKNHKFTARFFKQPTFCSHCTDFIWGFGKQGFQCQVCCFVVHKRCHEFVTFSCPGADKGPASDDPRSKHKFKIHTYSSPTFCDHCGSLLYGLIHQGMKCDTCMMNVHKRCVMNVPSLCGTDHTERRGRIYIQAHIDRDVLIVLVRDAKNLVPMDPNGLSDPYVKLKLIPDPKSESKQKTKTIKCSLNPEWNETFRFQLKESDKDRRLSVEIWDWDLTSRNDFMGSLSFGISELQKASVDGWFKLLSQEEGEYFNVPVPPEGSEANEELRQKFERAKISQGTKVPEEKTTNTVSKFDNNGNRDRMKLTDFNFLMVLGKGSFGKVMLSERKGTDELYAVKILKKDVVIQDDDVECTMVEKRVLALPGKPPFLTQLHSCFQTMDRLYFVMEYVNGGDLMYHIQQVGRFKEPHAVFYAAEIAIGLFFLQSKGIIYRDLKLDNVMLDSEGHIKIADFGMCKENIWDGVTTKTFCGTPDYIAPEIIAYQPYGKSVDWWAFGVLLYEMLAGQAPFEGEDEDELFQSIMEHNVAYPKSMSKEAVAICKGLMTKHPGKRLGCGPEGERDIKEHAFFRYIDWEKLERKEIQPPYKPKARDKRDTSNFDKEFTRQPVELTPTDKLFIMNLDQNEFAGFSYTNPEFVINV
Procedure: as §1
as §2, with “counted. Results are presented as an average and standard deviation of percentages of cells (Table 1).” for “counted.”

PKCγ = molecular target: T3, PKCγ (Homo sapiens, UniProt P05129); test: EGFP-PKC translocation in HeLa cells (PKCγ); format: cell-based; settings: one hour, TPA 100 ng/mL, bryostatin-1 5 pg/mL, PEP003 2.25 μg/mL (5 μM), PEP005 670 μg/mL (1.5 μM)
T3 construct: host or cells: HeLa cells
Procedure: as §1
as §2, with “counted. Results are presented as an average and standard deviation of percentages of cells (Table 1).” for “counted.”

PKCθ = molecular target: T4, PKCθ (Homo sapiens, UniProt Q04759); test: EGFP-PKC translocation in HeLa cells (PKCθ); format: cell-based; settings: one hour, same concentrations
T4 construct: host or cells: HeLa cells
T4 sequence (Q04759 whole entry): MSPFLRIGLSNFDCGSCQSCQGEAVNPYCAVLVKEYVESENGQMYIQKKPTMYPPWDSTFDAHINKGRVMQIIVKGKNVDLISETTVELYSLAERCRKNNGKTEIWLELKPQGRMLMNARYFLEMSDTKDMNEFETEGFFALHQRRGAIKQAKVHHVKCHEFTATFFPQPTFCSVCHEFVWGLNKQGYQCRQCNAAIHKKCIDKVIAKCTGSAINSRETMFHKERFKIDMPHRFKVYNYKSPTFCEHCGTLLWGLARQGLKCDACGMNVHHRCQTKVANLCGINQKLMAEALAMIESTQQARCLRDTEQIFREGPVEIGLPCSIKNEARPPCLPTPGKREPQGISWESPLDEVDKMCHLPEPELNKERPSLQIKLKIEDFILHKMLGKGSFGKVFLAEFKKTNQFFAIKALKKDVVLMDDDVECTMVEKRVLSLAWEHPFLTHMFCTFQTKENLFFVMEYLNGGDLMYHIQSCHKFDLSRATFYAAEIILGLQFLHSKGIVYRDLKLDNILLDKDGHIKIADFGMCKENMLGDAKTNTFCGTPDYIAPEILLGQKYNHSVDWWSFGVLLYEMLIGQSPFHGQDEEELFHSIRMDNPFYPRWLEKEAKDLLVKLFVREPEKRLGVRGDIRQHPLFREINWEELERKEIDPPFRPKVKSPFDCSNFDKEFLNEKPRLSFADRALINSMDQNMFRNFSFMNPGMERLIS
Procedure: as §1
as §2, with “counted. Results are presented as an average and standard deviation of percentages of cells (Table 1).” for “counted.”

PKCζ = molecular target: T5, PKCζ (Homo sapiens, UniProt Q05513); test: EGFP-PKC translocation in HeLa cells (PKCζ); format: cell-based; settings: one hour, same concentrations
T5 construct: host or cells: HeLa cells
T5 sequence (Q05513 1-592): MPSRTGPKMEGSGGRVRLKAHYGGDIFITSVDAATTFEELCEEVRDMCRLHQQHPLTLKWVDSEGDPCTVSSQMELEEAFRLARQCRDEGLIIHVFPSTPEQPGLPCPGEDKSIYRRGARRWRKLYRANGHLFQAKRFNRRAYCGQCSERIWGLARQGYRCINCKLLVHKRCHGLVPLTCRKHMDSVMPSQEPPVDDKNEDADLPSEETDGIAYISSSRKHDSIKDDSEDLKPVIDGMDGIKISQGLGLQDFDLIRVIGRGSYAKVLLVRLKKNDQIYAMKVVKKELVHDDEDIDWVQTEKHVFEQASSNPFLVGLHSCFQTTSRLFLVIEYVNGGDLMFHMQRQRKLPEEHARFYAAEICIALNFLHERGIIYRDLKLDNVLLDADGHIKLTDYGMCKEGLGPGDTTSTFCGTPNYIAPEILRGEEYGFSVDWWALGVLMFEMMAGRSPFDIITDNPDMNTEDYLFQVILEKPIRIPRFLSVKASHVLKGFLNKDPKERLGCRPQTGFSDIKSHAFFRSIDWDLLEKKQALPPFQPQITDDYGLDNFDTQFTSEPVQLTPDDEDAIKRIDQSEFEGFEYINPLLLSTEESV
Procedure: as §1
as §2, with “counted. Results are presented as an average and standard deviation of percentages of cells (Table 1).” for “counted.”

adenovirus 5 = test: Adenovirus replication in human melanoma cells; format: cell-based; settings: 2 days
Text: Human melanoma cells were infected with ten-fold dilutions of adenovirus 5 in culture, treated with dilutions of PEP005, PEP006, PEP008 and PEP010 and adenovirus replication determined 2 days later by immunhistochemical detection of virus-replicating cells.

[1] = tested on: peripheral blood mononuclear cells; test: Phagocytosis with fluorescent beads; format: cell-based; settings: 30 min, whole heparinized blood
Procedure: Phagocytosis by peripheral blood mononuclear cells (PBMCs) was assayed (Steinkamp et al., 1982) using 1 μm Fluoresbrite™ yellow-green fluorescent latex spheres (Polysciences, Inc., Warrington, Pa.). A sample of whole, heparinized blood was treated with drug and 5×10E7 fluorescent latex beads in 10 μL of PBS added per mL of suspension. Cells were incubated and maintained in suspension for 30 min by means of a shaker platform at 37° C. The stimulated and non-stimulated samples were then lysed to isolate PBMCs. The PBMCs were run on the flow cytometer measuring FITC (excitation at 488 nm, emission at 525±20 nm), gated for fluorescence (phagocytosed spheres) and light scatter (cell size).

[2] = tested on: MM96L human melanoma cells; test: Leukocytes plus drug, killing of MM96L cells ([3H]-thymidine); format: cell-based; settings: 60 ng/mL, 48 hr, 100:1 effector:target
Procedure: (§3) Leukocytes obtained by lysis of human peripheral blood were added to 5000 MM96L human melanoma cells or 7000 neonatal foreskin fibroblasts per microtitre well at effector: target ratios of 1000, 100 and 10:1. Ing9 (60 ng/mL) was added and after 48 hr incubation the cultures were washed and labelled with [3H]-thymidine for 2 hr. […] Untreated leukocytes had no effect on cell survival.

[3] = tested on: neonatal foreskin fibroblasts; test: Leukocytes plus drug, killing of fibroblasts ([3H]-thymidine); format: cell-based, human; settings: 60 ng/mL, 48 hr, 100:1 effector:target
Procedure: as §3

[4] = tested on: MM96L human melanoma cells; test: Pretreated MM96L cells, killing by untreated leukocytes; format: cell-based; settings: targets pretreated with 60 ng/mL for 20 hr, 100:1 effector:target
Procedure: (§4) Leukocytes obtained by lysis of human peripheral blood were added to 5000 MM96L human melanoma cells or 7000 neonatal foreskin fibroblasts per microtitre well at effector: target ratios of 1000, 100 and 10:1. The target cells had been treated with 60 ng/mL PEP008 for 20 hr beforehand, and washed and the medium replaced before the leukocytes were added. After 48 hr incubation with the leukocytes the cultures were washed and labelled with [3H]-thymidine for 2 hr. […] Untreated leukocytes had no effect on cell survival.

[5] = tested on: neonatal foreskin fibroblasts; test: Pretreated fibroblasts, killing by untreated leukocytes; format: cell-based, human; settings: targets pretreated with 60 ng/mL for 20 hr, 100:1 effector:target
Procedure: as §4

[6] = tested on: Peripheral blood mononuclear cells (granulocytes, monocytes, lymphocytes); test: Respiratory burst, DCFH-DA H2O2 flow cytometry; format: cell-based; settings: 15 min at 37° C.
Procedure: Experiments were also carried out using 2′,7′-dichlorofluorescein diacetate (DCFH-DA) to measure the production of H2O2. (J P Robinson, Oxidative burst methods, in Handbook of Flow Cytometry Methods, Wiley-Liss Inc, pp 147-149, 1993). H2O2 oxidizes the non-fluorescent probe (DCFH-DA) to a fluorescent probe that can then be detected by a flow cytometer. Peripheral blood mononuclear cells (PBMC) were extracted from a donor blood sample by lysis of heparinized blood and used in a suspension of 1×10^6/mL of phosphate buffer, pH 7.3. The cells were then incubated with DCFH-DA (1 μL/mL of 20 mM stock) for 15 minutes to allow it to be taken up and trapped by hydrolysis with cellular esterases. The cells were then stimulated by test compounds for 15 min at 37° C. Controls included in the experiment were unloaded control (cells with no DCFH-DA) and loaded control (cells with DCFH-DA, but no stimulation). These were used to monitor the non-specific oxidation of unstimulated cells. The cells were then analyzed on the flow cytometer (excitation at 488 nm, emission at 525±20 nm), gating each sample for individual cell populations—granulocytes, monocytes and lymphocytes (Table 3).

[7] = tested on: phorbol ester binding site of PKC; test: [3H]-phorbol dibutyrate competition assay, rat brain homogenate
Procedure: A competition assay was performed to determine whether the diterpene esters of the instant invention bind to the phorbol ester binding site of PKC. […] This binding was not blocked by co-incubation with bisindolylmaleimide.

rat brain PKC = test: PKC kinase activity, PepTag non-radioactive protein kinase assay; format: biochemical; settings: PepTag gel; various dilutions of TPA; ether extract final dilution 1 in 5; crude sap and aqueous layer diluted 1/25
Procedure: The kinase activity of rat brain PKC (Promega) was determined using the Peptag™ Non-Radioactive Protein Kinase Kit (Promega). Using agarose gel electrophoresis the technique visualises the opposing electrostatic charge of a fluorescently labeled peptide ([sequence]) compared to the phosphorylated version of the same peptide.
The reaction mixture was separated by gel electrophoresis, showing migration of the unreacted substrate (a) to the anode (top), and the product (b), which is more negatively charged because of phosphorylation by PKC, moving towards the cathode (bottom).

CC1=C[C@]23C(=O)[C@@H](C=C(CO)[C@@H](O)[C@]2(O)[C@H]1O)[C@H]1[C@@H](C[C@H]3C)C1(C)C [Ingenol]
reduction of HIV-1 replication rate (HIV-strain pNL4-3): approximately 35%

C/C=C(/C)C(=O)O[C@H]1C(C)=C[C@]23C(=O)[C@@H](C=C(CO)[C@@H](O)[C@]12O)[C@H]1[C@@H](C[C@H]3C)C1(C)C [PEP005, ingenol-3-angelate]
translocation of PKCα from cytoplasm to plasma membrane (PKCα): translocated from the cytoplasm to the plasma membrane
number of PKCβ transfected cells with Golgi-like fluorescence (PKCβ): decreases the number of cells
translocation of PKCβ from cytoplasm to plasma membrane (PKCβ; TPA 100 ng/mL, bryostatin-1 5 pg/mL, PEP003 2.25 μg/mL (5 μM), PEP005 670 μg/mL (1.5 μM)): translocated from the cytoplasm to the plasma membrane
translocation of PKCγ from cytoplasm to plasma membrane (PKCγ): translocated from the cytoplasm to the plasma membrane
translocation of PKCθ (PKCθ): does not induce any change
translocation of PKCζ (PKCζ): fail to induce translocation
increase in adenovirus replication (number of stained cells) (adenovirus 5; 67 ng/mL): 344%
phagocytosis of fluorescent latex spheres in PBMCs [1]: stimulate phagocytosis

C/C=C(/C)C(=O)O[C@H]1C(C)=C[C@]23C(=O)[C@H](C=C(C)[C@@H](O)[C@]12O)[C@H]1[C@@H](C[C@H]3C)C1(C)C [PEP006, 20-deoxy-ingenol-3-angelate]
increase in adenovirus replication (number of stained cells) (adenovirus 5; 295 ng/mL): 256%
phagocytosis of fluorescent latex spheres in PBMCs [1]: stimulate phagocytosis

C/C=C(/C)C(=O)O[C@H]1C(C)=C[C@]23C(=O)[C@@H](C=C(COC(C)=O)[C@@H](O)[C@]12O)[C@H]1[C@@H](C[C@H]3C)C1(C)C [PEP008, 20-O-acetyl-ingenol-3-angelate]
increase in adenovirus replication (number of stained cells) (adenovirus 5; 226 ng/mL): 248%
phagocytosis of fluorescent latex spheres in PBMCs [1]: stimulate phagocytosis
survival of melanoma cells [2]: 9%
survival of normal fibroblasts [3]: 100%
survival of melanoma cells [4]: 12%
survival of normal fibroblasts [5]: 100%

CCC/C=C/C=C/C(=O)O[C@H]1/C(=C/C(=O)OC)C[C@H]2C[C@H]([C@@H](C)O)OC(=O)C[C@H](O)C[C@@H]3C[C@H](OC(C)=O)C(C)(C)[C@](O)(C[C@@H]4C/C(=C/C(=O)OC)C[C@H](/C=C/C(C)(C)[C@]1(O)O2)O4)O3 [bryostatin-1]
number of PKCβ transfected cells with Golgi-like fluorescence (PKCβ): decreases the number of cells
translocation of PKCγ from cytoplasm to plasma membrane (PKCγ): not with bryostatin-1
translocation of PKCθ (PKCθ): translocated
translocation of PKCζ (PKCζ): fail to induce translocation
induction of respiratory burst (H2O2, DCFH-DA) [6]: All compounds except Bryostatin induced a respiratory burst

bisindolylmaleimide
binds to the phorbol ester binding site of PKC [7]: does not

phosphatidyl serine
activation of PKC (FIG. 1) (rat brain PKC): strong activation
